Measured values as given in patent publication US20210177814A1, “USE OF GUANABENZ OR DERIVATES THEREOF FOR THE TREATMENT OF TYPE I IFN-DEPENDENT PATHOLOGIES” (INSERM (Institut National de la Santé et de la Recherche …, priority 2018, published 2021).

Target: T1, TLR9 (Mus musculus, UniProt Q9EQU3)
T1 construct: from tissue; host or cells: whole animal: C57BL/6, FVB and FVB GADD34ΔC/ΔC mice
T1 sequence (Q9EQU3 26-1032): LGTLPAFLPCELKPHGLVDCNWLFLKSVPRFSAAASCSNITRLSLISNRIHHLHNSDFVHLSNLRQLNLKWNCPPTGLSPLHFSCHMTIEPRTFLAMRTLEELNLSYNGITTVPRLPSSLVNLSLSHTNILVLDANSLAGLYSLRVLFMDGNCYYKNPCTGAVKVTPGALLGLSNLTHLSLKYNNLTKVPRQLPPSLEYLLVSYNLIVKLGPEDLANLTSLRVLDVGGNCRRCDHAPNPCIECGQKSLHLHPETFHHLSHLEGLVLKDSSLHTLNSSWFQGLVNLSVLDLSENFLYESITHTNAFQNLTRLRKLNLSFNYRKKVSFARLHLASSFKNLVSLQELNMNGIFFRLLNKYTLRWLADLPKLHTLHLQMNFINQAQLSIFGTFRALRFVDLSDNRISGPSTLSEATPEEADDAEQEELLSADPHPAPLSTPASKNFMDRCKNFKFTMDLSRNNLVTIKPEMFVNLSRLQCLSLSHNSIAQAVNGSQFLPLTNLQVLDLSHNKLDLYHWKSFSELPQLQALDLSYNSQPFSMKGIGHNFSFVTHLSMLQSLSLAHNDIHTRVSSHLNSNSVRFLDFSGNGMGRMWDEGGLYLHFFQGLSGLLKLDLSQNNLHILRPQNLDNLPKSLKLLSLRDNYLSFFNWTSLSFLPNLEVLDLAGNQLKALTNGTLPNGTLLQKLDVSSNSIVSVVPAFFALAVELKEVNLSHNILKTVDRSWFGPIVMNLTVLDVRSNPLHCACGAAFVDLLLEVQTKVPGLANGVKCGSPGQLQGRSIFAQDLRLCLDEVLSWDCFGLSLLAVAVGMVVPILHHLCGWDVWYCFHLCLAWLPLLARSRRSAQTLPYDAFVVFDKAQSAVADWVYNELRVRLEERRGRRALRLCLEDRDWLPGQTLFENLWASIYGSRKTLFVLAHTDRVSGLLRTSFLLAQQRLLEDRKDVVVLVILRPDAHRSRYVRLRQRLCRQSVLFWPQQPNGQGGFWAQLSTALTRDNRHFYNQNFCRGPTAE
Assay: D-galN/CpG ODN 1826 cytokine shock model
Type: in vivo
Procedure: WT and GADD34^ΔC/ΔC mice were injected with D-galN (20 mg/mouse), CpG ODN 1826 or PBS for control mice (50 μg/20 g), GBZ or clonidine (2 mg/kg). (A) Survival of C57/BL6 mice is represented as total percentage of survival after 48 h or in a Kaplan-Meier plot. (B) Survival of FVB (WT) and FVB GADD34^ΔC/ΔC mice is represented as total percentage of survival after 48 h or in a Kaplan-Meier plot. (C) The concentration of circulating TNF-α, IL-10 and IL-6 in C57/BL6 mice was measured after 1 h and/or 3 h of CpG ODN 1826. (D) Liver tissue damage and histology score were blindly determined by a professional anatomopathologist. Statistical significance was assigned on sample comparison by a one-way ANOVA, followed by Tukey range test and on the survival curve using log-rank test, followed by Benjamini-Yekutieli correction (* p<0.05; ** p<0.005; ***p<0.0005.).
Wild type female mice C57BL/6 of 8 weeks of age were injected i.p. with 2 mg/kg of GBZ, clonidine or PBS/DMSO. One hour later, they were injected i.p. with 20 mg/mouse of d-GalN and ODN 1826 50 μg/20 g (or PBS). Mice survival was checked every 12 hours for up to 48 hours. For some experiments, blood sera were collected 1 and 3 h after the injection of D-galN. The serum was used to measure circulating cytokines (TNFα, IL-6, IFNβ IL-10, IL-12). For some experiments, the liver was collected for immunohistochemistry after two days. For i.p. injections, 1 ml syringes and 25 gauge needles were used. Blood was collected from the cheek with a 18 gauge needle; for the TMPD model, no more than 200 μL were collected each time, respecting the ethic statement.
Mouse kidney and liver were fixed in 10% buffered formalin for 24 h, then the tissues were dehydrated and embedded in paraffin. Tissue sections of 3.5 μm were cut using the microtom Leica RM2245. Hematoxylin-eosin staining was effectuated automatically with Leica autostainer XL. Finally, the slides were mounted with entellan and kept at room temperature. Biopsies were analyzed by an anatomopathologist and the clinical score was assigned in a blinded way. Pictures were taken with Nikon Eclipse.
• a) Lobular inflammation • 0—no inflammation, 1—mild lobular inflammation (<10% of liver parenchyma), 2—moderate lobular inflammation (10-50% of liver parenchyma), 3—severe lobular inflammation (>50% of liver parenchyma) • b) Portal inflammation • 0—no portal inflammation, 1—mild portal inflammation (<⅓ of portal tracts), 2—moderate portal inflammation (approximately 50% of portal tracks), 3—severe portal inflammation (>⅔ of portal tracts) • Portal and lobular inflammation score are added=inflammation score • c) Necrosis • 0—No necrosis, 1—<10% necrosis of liver parenchyma, 2—10-25% necrosis of liver parenchyma, 3—25% necrosis of liver parenchyma • Inflammation score and necrosis score are added=Total histologic score

[1] = WT mice, 1 hour after CpG injection, 2 mg/kg
[2] = WT mice, 3 h after CpG injection, 2 mg/kg

Clc1cccc(Cl)c1NC1=NCCN1 [clonidine, N-(2,6-dichlorophényl)-4,5-dihydro-1H-imidazol-2-amine]
survival after 48 h (C57BL/6 WT mice, D-galN + CpG ODN 1826, compound 2 mg/kg i.p.): not substantially changed
circulating IL-6 plasma concentration [1]: some inhibitory effect
circulating TNF-α plasma concentration [1]: some inhibitory effect
inhibitory effect on IL-6 production [2]: not observed
inhibitory effect on TNF-α production [2]: not observed
